Reference: patent US10131652B2, “Pyrimidinyloxy benzene derivatives as herbicides” (E. I. DU PONT DE NEMOURS AND COMPANY, priority 2014, dated 2018)
Read-outs that look alike come from different tables or passages of the source.

What was measured:
Type in all cases: in vivo
[1] = tested on: morningglory (Ipomoea spp.); test: Test B pre-/postemergence plant response; conditions: Ipomoea, 240 h, read-out: Plant response rating, Morningglory; for pest or weed control at 125 g/ha: 125 g ai/ha; for pest or weed control at 500 g/ha: 500 g ai/ha
Method in brief: (§1)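 Seeds in loam–sand blend given preemergence soil spray; separately, plants at one- to two-leaf stage (2–10 cm) sprayed postemergence, compounds in non-phytotoxic solvent with surfactant. Injury rated visually versus untreated controls after ~10 days in greenhouse, 0 (no effect) to 100 (complete control).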

[2] = tested on: velvetleaf (Abutilon theophrasti); test: Test B pre-/postemergence plant response; conditions: Abutilon theophrasti, 240 h, read-out: Plant response rating, Velvetleaf; for pest or weed control at 125 g/ha: 125 g ai/ha; for pest or weed control at 500 g/ha: 500 g ai/ha
Method in brief: as §1

[3] = tested on: large (Lg) crabgrass (Digitaria sanguinalis); test: Test B pre-/postemergence plant response; conditions: Digitaria sanguinalis, 240 h, read-out: Plant response rating, Crabgrass, Large; for pest or weed control at 125 g/ha: 125 g ai/ha; for pest or weed control at 500 g/ha: 500 g ai/ha
Method in brief: as §1

[4] = tested on: ducksalad (Heteranthera limosa); test: Test D flooded paddy test plant response; conditions: Flood (flooded paddy test), visual rating on scale 0 to 100 (0 no effect, 100 complete control), 13 to 15 days
Excerpt: (§2) Plant species in the flooded paddy test consisted of rice (Oryza sativa), small-flower umbrella sedge (Cyperus difformis), ducksalad (Heteranthera limosa), and bamyardgrass (Echinochloa crus-galli) grown to the 2-leaf stage for testing. At time of treatment, test pots were flooded to 3 cm above the soil surface, treated by application of test compounds directly to the paddy water, and then maintained at that water depth for the duration of the test. Treated plants and controls were maintained in a greenhouse for 13 to 15 days, after which time all species were compared to controls and visually evaluated. Plant response ratings, summarized in Table D, are based on a scale of 0 to 100 where 0 is no effect and 100 is complete control. A dash (-) response means no test result.

[5] = tested on: barnyardgrass (Echinochloa crus-galli); test: Test D flooded paddy test plant response; conditions: Flood (flooded paddy test), visual rating on scale 0 to 100 (0 no effect, 100 complete control), 13 to 15 days
Excerpt: as §2

[6] = tested on: small-flower umbrella sedge (Cyperus difformis); test: Test D flooded paddy test plant response; conditions: Flood (flooded paddy test), visual rating on scale 0 to 100 (0 no effect, 100 complete control), 13 to 15 days
Excerpt: as §2

rice (Oryza sativa) = test: Test D flooded paddy test plant response; conditions: Flood (flooded paddy test), visual rating on scale 0 to 100 (0 no effect, 100 complete control), 13 to 15 days
Excerpt: as §2

[7] = tested on: windgrass (Apera spica-venti); test: Test E pre-/postemergence plant response; conditions: scale 0 to 100, read-out: Plant response rating, Windgrass; for pest or weed control at 16 g/ha: 16 g ai/ha; for pest or weed control at 62 g/ha: 62 g ai/ha; for pest or weed control at 125 g/ha: 125 g ai/ha
Excerpt: (§3) Seeds of plant species selected from bluegrass (annual bluegrass, Poa annua), blackgrass (Alopecurus myosuroides), canarygrass (Phalaris minor), chickweed (common chickweed, Stellaria media), galium (catchweed bedstraw, Galium aparine), downy bromegrass (Bromus tectorum), field poppy (Papaver rhoeas), field violet (Viola arvensis), green foxtail (Setaria viridis), deadnettle (henbit deadnettle, Lamium amplexicaule), Italian ryegrass (Lolium multiflorum), kochia (Kochia scoparia), lambsquarters (Chenopodium album), oilseed rape (Brassica napus), pigweed (Amaranthus retroflexus), Russian thistle (Salsola iberica), chamomile (scentless chamomile, Matricaria inodora), speedwell (bird's-eye speedwell, Veronica persica), spring barley (Hordeum vulgare), spring wheat (Triticum aestivum), wild buckwheat (Polygonum convolvulus), wild mustard (Sinapis arvensis), wild oat (Avena fatua), wild radish (Raphanus raphanistrum), windgrass (Apera spica-venti), winter barley (Hordeum vulgare), and winter wheat (Triticum aestivum) were planted into a silt loam soil and treated preemergence with test chemicals formulated in a non-phytotoxic solvent mixture which included a surfactant. At the same time, these species were planted in pots containing Redi-Earth® planting medium (Scotts Company, 14111 Scottslawn Road, Marysville, Ohio 43041) comprising spaghnum peat moss, vermiculite, wetting agent and starter nutrients and treated with postemergence applications of the test chemicals formulated in the same manner. Plants ranged in height from 2 to 18 cm (1- to 4-leaf stage).
(§4) Treated plants and controls were maintained in a controlled growth environment for 7 to 21 days after which time all species were compared to controls and visually evaluated. Plant response ratings, summarized in Table E, are based on a scale of 0 to 100 where 0 is no effect and 100 is complete control. A dash (-) response means no test result.

wild oat (Avena fatua) = test: Test E pre-/postemergence plant response; conditions: scale 0 to 100, read-out: Plant response rating, Oat, Wild; for pest or weed control at 16 g/ha: 16 g ai/ha; for pest or weed control at 31 g/ha: 31 g ai/ha; for pest or weed control at 62 g/ha: 62 g ai/ha; for pest or weed control at 125 g/ha: 125 g ai/ha
Excerpt: as §3, §4

Horseweed = test: Test F postemergence plant response; conditions: scale 0 to 100
[8] = post-emergence, postemergence, 0 to 100 scale, 0 no effect, 100 complete control
[9] = post-emergence, Postemergence, 0 to 100 scale (0 no effect, 100 complete control)
[10] = pre-emergence, Preemergence, 0 to 100 scale where 0 is no effect and 100 is complete control

Row | SMILES | Plant response rating, Ducksalad ([4]; 31 g ai/ha) | Plant response rating, Ducksalad ([4]; 62 g ai/ha) | Plant response rating, Ducksalad ([4]; 125 g ai/ha) | Plant response rating, Ducksalad ([4]; 250 g ai/ha) | Plant response rating, Barnyardgrass ([5]; 31 g ai/ha) | Plant response rating, Barnyardgrass ([5]; 62 g ai/ha) | Plant response rating, Barnyardgrass ([5]; 125 g ai/ha) | Plant response rating, Barnyardgrass ([5]; 250 g ai/ha) | Plant response rating, Sedge, Umbrella ([6]; 31 g ai/ha) | Plant response rating, Sedge, Umbrella ([6]; 62 g ai/ha) | Plant response rating, Sedge, Umbrella ([6]; 125 g ai/ha) | Plant response rating, Sedge, Umbrella ([6]; 250 g ai/ha) | Plant response rating, Rice (rice (Oryza sativa); 31 g ai/ha) | Plant response rating, Rice (rice (Oryza sativa); 62 g ai/ha) | Plant response rating, Rice (rice (Oryza sativa); 125 g ai/ha) | Plant response rating, Rice (rice (Oryza sativa); 250 g ai/ha) | Plant response rating, Horseweed (Horseweed; 16 g ai/ha Postemergence) | Plant response rating, Horseweed (Horseweed; 31 g ai/ha Postemergence) | Plant response rating, Horseweed (Horseweed; 62 g ai/ha Postemergence) | Plant response rating, Horseweed (Horseweed; 125 g ai/ha Postemergence) | other results
1 | FCc1cc(-c2ccccc2Oc2ncc(Cl)cn2)no1 [Compound 32, 5-chloro-2-[2-[5-(fluoromethyl)-3-isoxazolyl]phenoxy]pyrimidine] | 0 | 60 | 65 | 95 | 0 | 0 | 10 | 20 | 0 | 40 | 65 | 90 | 0 | 0 | 0 | 15 | – | – | – | – | pest or weed control at 125 g/ha [1, 8]: 70%; pest or weed control at 500 g/ha [1, 9]: 90%; pest or weed control at 125 g/ha [1, 10]: 0%; pest or weed control at 500 g/ha [1, 10]: 30%; pest or weed control at 125 g/ha [2, 8]: 90%; pest or weed control at 500 g/ha [2, 9]: 100%; pest or weed control at 125 g/ha [2, 10]: 90%; pest or weed control at 500 g/ha [2, 10]: 100%; pest or weed control at 125 g/ha [3, 8]: 60%; pest or weed control at 500 g/ha [3, 9]: 90%; pest or weed control at 125 g/ha [3, 10]: 100%; pest or weed control at 500 g/ha [3, 10]: 100%
2 | FC(F)c1cc(-c2ccccc2Oc2ncc(Cl)cn2)on1 [Compound 53, 5-chloro-2-[2-[3-(difluoromethyl)-5-isoxazolyl]phenoxy]pyrimidine] | 40 | 50 | 80 | 80 | 0 | 0 | 0 | 0 | 0 | 0 | 70 | 75 | 0 | 0 | 0 | 0 | – | – | – | – | pest or weed control at 16 g/ha ([7]; post-emergence, Postemergence): 5%; pest or weed control at 31 g/ha ([7]; post-emergence, 31 g ai/ha, Postemergence): 5%; pest or weed control at 62 g/ha ([7]; post-emergence, Postemergence): 10%; pest or weed control at 125 g/ha ([7]; post-emergence, Postemergence): 20%; pest or weed control at 16 g/ha ([7]; pre-emergence, Preemergence): 0%; pest or weed control at 62 g/ha ([7]; pre-emergence, Preemergence): 35%; pest or weed control at 125 g/ha ([7]; pre-emergence, Preemergence): 50%; pest or weed control at 16 g/ha (wild oat (Avena fatua); post-emergence, Postemergence): 5%; pest or weed control at 31 g/ha (wild oat (Avena fatua); post-emergence, Postemergence): 5%; pest or weed control at 62 g/ha (wild oat (Avena fatua); post-emergence, Postemergence): 10%; pest or weed control at 125 g/ha (wild oat (Avena fatua); post-emergence, Postemergence): 25%; pest or weed control at 16 g/ha (wild oat (Avena fatua); pre-emergence, Preemergence): 0%; pest or weed control at 31 g/ha (wild oat (Avena fatua); pre-emergence, Preemergence): 0%; pest or weed control at 62 g/ha (wild oat (Avena fatua); pre-emergence, Preemergence): 10%; pest or weed control at 125 g/ha (wild oat (Avena fatua); pre-emergence, Preemergence): 25%
3 | Fc1ccc(Oc2ncc(Cl)cn2)c(-c2cc(C(F)F)on2)c1Cl [Compound 96] | – | – | – | – | – | – | – | – | – | – | – | – | – | – | – | – | 0 | 0 | 0 | 10 | –
4 | CC(F)(F)c1cc(-c2ccccc2Oc2ncc(Br)cn2)no1 [Compound 149] | – | – | – | – | – | – | – | – | – | – | – | – | – | – | – | – | 0 | 20 | 10 | 20 | –
5 | CC(F)(F)c1cc(-c2ccccc2Oc2ncc(Cl)cn2)on1 [Compound 178] | 40 | 65 | 70 | 70 | 0 | 0 | 0 | 0 | 30 | 60 | 60 | 75 | 0 | 0 | 0 | 0 | – | – | – | – | –
6 | FC(F)c1cc(-c2c(Cl)cccc2Oc2ncc(Cl)cn2)no1 [Compound 179] | – | – | – | – | – | – | – | – | – | – | – | – | – | – | – | – | 0 | 0 | 10 | 10 | –
7 | N#Cc1cccc(Oc2ncc(Cl)cn2)c1-c1cc(C(F)F)on1 [Compound 180] | 0 | 0 | 75 | 75 | 0 | 0 | 10 | 10 | 0 | 50 | 75 | 80 | 0 | 0 | 0 | 0 | – | – | – | – | –
